# In patent EP3727043B1 (Golden Gait Biotech, S.L., priority 2017, dated 2019):
# What was measured:
# [1] = test system: rats with a unilateral 6-hydroxydopamine lesion; assay: LIDs in rats with a unilateral 6-hydroxydopamine lesion; format: in vivo; settings: parkinsonian rat model of LIDs
# [2] = biological target: β2* nAChR (Homo sapiens, UniProt P17787); settings: nAChR subtype: β2; cited from earlier work
# [3] = cited from earlier work
# [4] = cited from earlier work; remark: listed apart in the source
# [5] = biological target: α7 nAChR (Homo sapiens, UniProt P36544); settings: nAChR subtype: α7; cited from earlier work
# Chain of α7 nAChR (P36544 23-502): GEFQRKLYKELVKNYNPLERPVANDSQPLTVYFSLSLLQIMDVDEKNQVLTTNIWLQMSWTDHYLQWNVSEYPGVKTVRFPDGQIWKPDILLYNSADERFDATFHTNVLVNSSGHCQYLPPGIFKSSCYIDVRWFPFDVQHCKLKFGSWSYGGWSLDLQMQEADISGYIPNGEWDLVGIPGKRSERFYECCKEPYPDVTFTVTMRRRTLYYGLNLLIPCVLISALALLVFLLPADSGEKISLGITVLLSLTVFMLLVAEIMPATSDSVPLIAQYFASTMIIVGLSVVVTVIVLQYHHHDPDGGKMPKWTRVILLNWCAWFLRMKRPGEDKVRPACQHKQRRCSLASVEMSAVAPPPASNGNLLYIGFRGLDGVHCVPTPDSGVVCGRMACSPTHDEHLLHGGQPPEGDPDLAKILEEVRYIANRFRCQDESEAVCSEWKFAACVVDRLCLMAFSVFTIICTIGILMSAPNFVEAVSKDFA
# Chain of β2* nAChR (P17787 26-502): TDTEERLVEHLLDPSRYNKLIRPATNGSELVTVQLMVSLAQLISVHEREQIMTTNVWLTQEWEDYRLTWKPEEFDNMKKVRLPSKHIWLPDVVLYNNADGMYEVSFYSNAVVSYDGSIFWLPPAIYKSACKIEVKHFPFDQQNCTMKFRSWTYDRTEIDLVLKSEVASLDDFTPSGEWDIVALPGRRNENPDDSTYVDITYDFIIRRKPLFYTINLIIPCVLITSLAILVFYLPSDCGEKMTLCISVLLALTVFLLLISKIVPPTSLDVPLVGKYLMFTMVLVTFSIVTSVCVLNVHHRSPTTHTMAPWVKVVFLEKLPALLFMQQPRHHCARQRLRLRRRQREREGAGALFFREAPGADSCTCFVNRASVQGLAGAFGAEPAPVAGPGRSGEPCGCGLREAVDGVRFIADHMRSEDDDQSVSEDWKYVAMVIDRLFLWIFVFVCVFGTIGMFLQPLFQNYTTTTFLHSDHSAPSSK
smiles,measurement,setting,value
OCCCCC#Cc1cncc(OC[C@@H]2CCN2)c1 [sazetidine],reduction of LIDs,[1],reduced LIDs to varying extents
Clc1cc(N2C[C@@H]3CN[C@@H]3C2)cnc1Cl [ABT-894],Ki,[2],0.0003 µM
CN[C@@H](C)C/C=C/c1cncc(OC(C)C)c1 [TC-2696],reduction of LIDs,[1],reduced LIDs to varying extents
"C[C@@](Cc1ccc(O)c(O)c1)(NN)C(=O)O [Carbidopa, (-)-L-α-hydrazino-α-methyl-β-(3,4-dihydroxybenzene) propanoic acid monohydrate]",solubility in water,[3],slightly soluble in water
same,reduction of the amount of levodopa required to produce a given response,[4]; in vivo,about 75%
c1cc2cc(-c3ccc(O[C@H]4CN5CCC4CC5)nn3)ccc2[nH]1 [ABT-107],Ki,[5],0.0005 µM
c1cncc(OC[C@@H]2CCN2)c1 [A-85380],reduction of LIDs,[1],reduced LIDs to varying extents
O=C(c1ccc(Cl)o1)N1CC2CNCC2C1 (stereo not shown) [AZD 1446],Ki,[2],0.03 µM
c1cnc2cc3c(cc2n1)[C@@H]1CNC[C@H]3C1 [Varenicline],reduction of LIDs,[1],reduced LIDs to varying extents
Cc1ncccc1OC[C@@H]1CCCN1 [ABT-089],Ki,[2],0.017 µM
"N[C@@H](Cc1ccc(O)c(O)c1)C(=O)O [Levodopa, (S)-2-amino-3-(3,4-dihydroxyphenyl) propanoic acid]",solubility in water,[3],slightly soluble in water
same,plasma half-life of levodopa,[4]; without carbidopa,50 min
Cc1ccc(-c2ccc(OC3CN4CCC3CC4)cn2)cc1 (stereo not shown) [AQW051],Ki,[5],0.027 µM
